# Source: the supplement of paper PMC11208160
# Test: recombinant UMI read abundance after kanamycin selection (control-corrected) (log10(CPM+1)); higher = more efficient recombination; extreme values may be limits of the assay; sequences stand for … in AGTGCAGAGAAAATCGGCCAGTTTTCTCTGCCTGCAGTCCGCATGCCGTGGGACCCCTTGGGTTCTAACCTGTTGCCTAGATTTATGCAGCGGACTGCCTTTCTCCCAAAGTGATAAACCGG…AGGTTGGTTTCACT; site = the 11-nt donor
# Method in brief: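 Counts of recombinant UMIs were reported as log10(CPM+1). Before that, they were converted to CPM, averaged over replicates and scaled using control-derived factors. They came from PCR across the donor–target junction after Escherichia coli carrying the pair library and target plasmid was plated on IPTG (0.07 mM) plus kanamycin, or unselected, in two replicates each.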
# 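Note: IS621 bridge recombinase in Escherichia coli cells against a fixed T5 target plasmid.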
row,Sequence,recombinant UMI read abundance (log10)
1,GGATAGACATGGACCGGTTTTCCCGGTAATCCGTATTTGCC (site GGTTAGACTGG),1.09
2,GGATAGACATGGACCGGTTTTCCCGGTAATCCGTATTTGCC (site GTATAGACTGG),1.89
3,GGATAGACATGGACCGGTTTTCCCGGTAATCCGTATTTGCC (site TGATAGACTGG),2.09
4,GGATAGACATGGACCGGTTTTCCCGGTAATCCGTATTTGGC (site GGATAGACTGA),1.7
5,GGATAGACATGGACCGGTTTTCCCGGTAATCCGTATTTGGC (site GGATAGACTGC),2.35
6,GGATAGACATGGACCGGTTTTCCCGGTAATCCGTATTTGGC (site GGATAGACTGG),0
7,GGATAGACATGGACCGGTTTTCCCGGTAATCCGTATTTGGC (site GGATAGACTGT),2.32
8,GGATAGACATGGACCGGTTTTCCCGGTAATCCGTATTTGTC (site GGATAGACTGA),3.09
9,GGATAGACATGGACCGGTTTTCCCGGTAATCCGTATTTGTC (site GGATAGACTGC),0.855
10,GGATAGACATGGACCGGTTTTCCCGGTAATCCGTATTTGTC (site GGATAGACTGG),2.1
11,GGATAGACATGGACCGGTTTTCCCGGTAATCCGTATTTGTC (site GGATAGACTGT),1.81
12,GGATAGTCATGGACCGGTTTTCCCGGTAATCCGTATTTGCT (site GGATAGTCTAG),3.17
13,GGATATACATGGACCGGTTTTCCCGGTAATCCGTATTTGAT (site GGATATACTAT),2.03
14,GGATCGACATGGACCGGTTTTCCCGGTAATCCGTATTTGTA (site GGATCGACTTA),0.775
15,GGATCGTCATGGACCGGTTTTCCCGGTAATCCGTATTTGCT (site CGATCATCTAG),0.402
16,GGATCGTCATGGACCGGTTTTCCCGGTAATCCGTATTTGCT (site GGATCGTCTAG),2.28
17,GGATGAACATGGACCGGTTTTCCCGGTAATCCGTATTTGTT (site GGATGAACTAA),1.78
18,GGATTCACATGGACCGGTTTTCCCGGTAATCCGTATTTGTT (site GGATTCACTAA),1.44
19,GGATTGGCATGGACCGGTTTTCCCGGTAATCCGTATTTGGT (site GGAATGGCTAC),0.341
20,GGATTGGCATGGACCGGTTTTCCCGGTAATCCGTATTTGGT (site GGACTGGCTAC),0.611
21,GGATTGGCATGGACCGGTTTTCCCGGTAATCCGTATTTGGT (site GGAGTGGCTAC),0.0175
22,GGATTGGCATGGACCGGTTTTCCCGGTAATCCGTATTTGGT (site GGATTGGCTAC),1.46
23,GGCAAACCATGGACCGGTTTTCCCGGTAATCCGTATTTGGT (site GACAAACCTAC),0
24,GGCAAACCATGGACCGGTTTTCCCGGTAATCCGTATTTGGT (site GCCAAACCTAC),0
25,GGCAAACCATGGACCGGTTTTCCCGGTAATCCGTATTTGGT (site GGCAAACCTAC),0

row,Sequence,recombinant UMI read abundance (log10)
1,GGCAAACCATGGACCGGTTTTCCCGGTAATCCGTATTTGGT (site GTCAAACCTAC),0
2,GGCAACCCATGGACCGGTTTTCCCGGTAATCCGTATTTGAA (site GGCAAACCTTT),0
3,GGCAACCCATGGACCGGTTTTCCCGGTAATCCGTATTTGAA (site GGCAACCCTTT),0.0234
4,GGCAACCCATGGACCGGTTTTCCCGGTAATCCGTATTTGAA (site GGCAAGCCTTT),0
5,GGCAACCCATGGACCGGTTTTCCCGGTAATCCGTATTTGAA (site GGCAATCCTTT),0.00284
6,GGCAATCCATGGACCGGTTTTCCCGGTAATCCGTATTTGAT (site GGCAATCCTAT),0.192
7,GGCAATCCATGGACCGGTTTTCCCGGTAATCCGTATTTGAT (site GGCAATCCTCT),0.0105
8,GGCAATCCATGGACCGGTTTTCCCGGTAATCCGTATTTGAT (site GGCAATCCTGT),0
9,GGCAATCCATGGACCGGTTTTCCCGGTAATCCGTATTTGAT (site GGCAATCCTTT),0.00349
10,GGCAATCCATGGACCGGTTTTCCCGGTAATCCGTATTTGCA (site GGCAATCCTTA),0.227
11,GGCAATCCATGGACCGGTTTTCCCGGTAATCCGTATTTGCA (site GGCAATCCTTC),0.0145
12,GGCAATCCATGGACCGGTTTTCCCGGTAATCCGTATTTGCA (site GGCAATCCTTG),0
13,GGCAATCCATGGACCGGTTTTCCCGGTAATCCGTATTTGCA (site GGCAATCCTTT),0.0136
14,GGCAATTCATGGACCGGTTTTCCCGGTAATCCGTATTTGAA (site GGCAATACTTT),0.0193
15,GGCAATTCATGGACCGGTTTTCCCGGTAATCCGTATTTGAA (site GGCAATCCTTT),0.0153
16,GGCAATTCATGGACCGGTTTTCCCGGTAATCCGTATTTGAA (site GGCAATGCTTT),0.0122
17,GGCAATTCATGGACCGGTTTTCCCGGTAATCCGTATTTGAA (site GGCAATTCTTT),0.996
18,GGCAGAACATGGACCGGTTTTCCCGGTAATCCGTATTTGTG (site GGCAGAACTCA),1.3
19,GGCAGCCCATGGACCGGTTTTCCCGGTAATCCGTATTTGAC (site GGCAGCCCTGT),0
20,GGCAGCGCATGGACCGGTTTTCCCGGTAATCCGTATTTGCT (site GGCAGCGCTAG),2.43
21,GGCAGTCCATGGACCGGTTTTCCCGGTAATCCGTATTTGAA (site GGCAATCCTTT),0.00812
22,GGCAGTCCATGGACCGGTTTTCCCGGTAATCCGTATTTGAA (site GGCACTCCTTT),0.018
23,GGCAGTCCATGGACCGGTTTTCCCGGTAATCCGTATTTGAA (site GGCAGTCCTTT),0.191
24,GGCAGTCCATGGACCGGTTTTCCCGGTAATCCGTATTTGAA (site GGCATTCCTTT),0
25,GGCAGTCCATGGACCGGTTTTCCCGGTAATCCGTATTTGGG (site GGCAGTCCTCC),0.00418

row,Sequence,recombinant UMI read abundance (log10)
1,GGCAGTGCATGGACCGGTTTTCCCGGTAATCCGTATTTGGA (site GGCAGTGCTTC),0.329
2,GGCATTCCATGGACCGGTTTTCCCGGTAATCCGTATTTGAA (site GGCAATCCTTT),0
3,GGCATTCCATGGACCGGTTTTCCCGGTAATCCGTATTTGAA (site GGCACTCCTTT),0.0138
4,GGCATTCCATGGACCGGTTTTCCCGGTAATCCGTATTTGAA (site GGCAGTCCTTT),0.00406
5,GGCATTCCATGGACCGGTTTTCCCGGTAATCCGTATTTGAA (site GGCATTCCTTT),0.29
6,GGCATTGCATGGACCGGTTTTCCCGGTAATCCGTATTTGGT (site GGCATTGCTAC),1.48
7,GGCATTTCATGGACCGGTTTTCCCGGTAATCCGTATTTGGG (site GGCATTTCTCC),0
8,GGCCAGCCATGGACCGGTTTTCCCGGTAATCCGTATTTGTT (site GGCCAACCTAA),0.00333
9,GGCCAGCCATGGACCGGTTTTCCCGGTAATCCGTATTTGTT (site GGCCACCCTAA),0.0285
10,GGCCAGCCATGGACCGGTTTTCCCGGTAATCCGTATTTGTT (site GGCCAGCCTAA),0.00292
11,GGCCAGCCATGGACCGGTTTTCCCGGTAATCCGTATTTGTT (site GGCCATCCTAA),0
12,GGCCCGACATGGACCGGTTTTCCCGGTAATCCGTATTTGCT (site GGCCCGACTAG),1.49
13,GGCCCTGCATGGACCGGTTTTCCCGGTAATCCGTATTTGTA (site GGCCCTGCTTA),0.378
14,GGCGAACCATGGACCGGTTTTCCCGGTAATCCGTATTTGAA (site GGCGAACCTTT),0
15,GGCGATTCATGGACCGGTTTTCCCGGTAATCCGTATTTGGC (site GGCGATTCTGC),1.57
16,GGCGCAGCATGGACCGGTTTTCCCGGTAATCCGTATTTGGT (site GGCGCAGCTAC),0.482
17,GGCGCGACATGGACCGGTTTTCCCGGTAATCCGTATTTGCC (site GGCGCGACTGG),1.35
18,GGCGGCGCATGGACCGGTTTTCCCGGTAATCCGTATTTGTA (site GGCGGCGCTTA),0.781
19,GGCTACCCATGGACCGGTTTTCCCGGTAATCCGTATTTGTT (site GGCAACCCTAA),0.00887
20,GGCTACCCATGGACCGGTTTTCCCGGTAATCCGTATTTGTT (site GGCCACCCTAA),0.268
21,GGCTACCCATGGACCGGTTTTCCCGGTAATCCGTATTTGTT (site GGCGACCCTAA),0.015
22,GGCTACCCATGGACCGGTTTTCCCGGTAATCCGTATTTGTT (site GGCTACCCTAA),0.0101
23,GGCTAGTCATGGACCGGTTTTCCCGGTAATCCGTATTTGAC (site GGCTAGTCTGT),0
24,GGCTCGTCATGGACCGGTTTTCCCGGTAATCCGTATTTGCA (site GGCTCGTCTTG),2.16
25,GGCTCTACATGGACCGGTTTTCCCGGTAATCCGTATTTGGC (site GGCTCTACTGC),0
